The values below come from PMC6792352, “Limited Chemical Structural Diversity Found to Modulate Thyroid Hormone Receptor in the Tox21 Chemical Library” (Environmental Health Perspectives, 2019).

Where a name gives a salt, the structure may show the parent alone.

The data set in a line: in vitro. The following applies: rat, gh3-tre-luc cells.

By CC50 is commonly meant the concentration at which the toxic effect on the cells reaches its halfway point. As for `Cc1ccc(C(=O)C(C)CN2CCCCC2)cc1` (stereo not shown) [Tolperisone hydrochloride], the 50% cytotoxic concentration (CC50) at 24 h (AC50 (uM) modified / 1000) was more than 50 µM.

Under “AC50 (uM) modified / 1000”, `CO/C=C(/C(=O)OC)c1ccccc1COc1cccc(C(F)(F)F)n1` [Picoxystrobin] displayed a CC50 at 24 h of more than 90 µM. `Cc1ccnc(NS(=O)(=O)c2ccc(N)cc2)n1` [Sulfamerazine]: where the note is “AC50 (uM) modified / 1000”, the CC50 at 24 h is more than 20 µM. For the setting “AC50 (uM) modified / 1000, Tox21_110001=Tox21_200857, viability, 1 nM T3 present, 24 h”, `NC(N)=[Se]` [Selenourea] yielded a half-maximal cytotoxic concentration (CC50) at 24 h of more than 90 µM.

Turning to `CN[C@@H]1[C@H](O)[C@H](NC)[C@H]2O[C@@]3(O)C(=O)C[C@@H](C)O[C@H]3O[C@@H]2[C@H]1O` [Spectinomycin dihydrochloride], the CC50 at 24 h (AC50 (uM) modified / 1000) was more than 20 µM. On the same count and under the same terms, with `CN(N=O)c1ccc([N+](=O)[O-])cc1` [N-Nitroso-N-methyl-4-nitroaniline] the figure was more than 90 µM; with `O=C1OC(=O)c2cc([N+](=O)[O-])ccc21` [4-Nitrophthalic anhydride], more than 90 µM. Compound `COc1ccc(N=[N+]([O-])c2ccc(OC)cc2)cc1` [4-Azoxyanisole] yielded a CC50 at 24 h (AC50 (uM) modified / 1000) of more than 90 µM. Same read-out and setting: with `ClCC1CO1` (stereo not shown) [Epichlorohydrin] the figure was more than 90 µM. As to `CN1C(=O)CC(C)(c2ccccc2)C1=O` (stereo not shown) [Methsuximide], the CC50 at 24 h (AC50 (uM) modified / 1000) is more than 50 µM. In turn, `CCCN(CCC)C(=O)C(CCC(=O)OCCCN1CCN(CCOC(=O)Cc2c(C)n(C(=O)c3ccc(Cl)cc3)c3ccc(OC)cc23)CC1)NC(=O)c1ccccc1` (stereo not shown) [Proglumetacin] gave a half-maximal cytotoxic concentration (CC50) at 24 h (AC50 (uM) modified / 1000) of 10.5 µM.

`COc1ccccc1N1CCNCC1` [1-(2-Methoxyphenyl)piperazine hydrochloride]: the cytotoxic concentration (CC50) at 24 h (AC50 (uM) modified / 1000, Tox21_110001=Tox21_111273, viability, 1 nM T3 present, 24 h) is more than 50 µM. The compound `ClC(Cl)=C(Cl)Cl` [Tetrachloroethylene] registered a half-maximal cytotoxic concentration (CC50) at 24 h (AC50 (uM) modified / 1000, Tox21_110001=Tox21_201196, viability, 1 nM T3 present, 24 h) of more than 90 µM. `CCCCCCCCCCCC(=O)OC` [Methyl dodecanoate] displayed a CC50 at 24 h (AC50 (uM) modified / 1000) of more than 90 µM. For the compound `CCCCNC(=O)NS(=O)(=O)c1ccc(N)cc1` [Carbutamide], the CC50 at 24 h (AC50 (uM) modified / 1000) is more than 90 µM. `CN1CCN(CCCN2c3ccccc3Sc3ccc(C(F)(F)F)cc32)CC1` [Fluoperazine dihydrochloride]: the cytotoxic concentration (CC50) at 24 h (AC50 (uM) modified / 1000) was 7.86 µM.

In the case of `CCOC(=O)N(C)C(=O)CSP(=S)(OCC)OCC` [Mecarbam], under “AC50 (uM) modified / 1000, Tox21_110001=Tox21_302005, viability, 1 nM T3 present, 24 h”, the CC50 at 24 h was more than 90 µM. Regarding `O=C(Nc1ccc(F)cc1F)c1cccnc1Oc1cccc(C(F)(F)F)c1` [Diflufenican], the half-maximal cytotoxic concentration (CC50) at 24 h (AC50 (uM) modified / 1000) is more than 100 µM. For `COC(=O)C1(O)c2ccccc2-c2ccccc21` [Flurenol-methyl], the cytotoxic concentration (CC50) at 24 h (AC50 (uM) modified / 1000, Tox21_110001=Tox21_301428, viability, 1 nM T3 present, 24 h) is more than 90 µM.

For the compound `Cc1ccc(C(C)(C)C)cc1` [4-tert-Butyltoluene], the cytotoxic concentration (CC50) at 24 h (AC50 (uM) modified / 1000) is more than 90 µM. Same read-out and setting: with `Oc1ccc(Cl)cc1C1CCCC1` [4-Chloro-2-cyclopentylphenol] the figure was 55.3 µM.

As for `O=C(O)C(Br)CBr` (stereo not shown) [2,3-Dibromopropionic acid], the CC50 at 24 h (AC50 (uM) modified / 1000, Tox21_110001=Tox21_200140, viability, 1 nM T3 present, 24 h) is more than 90 µM. Consider `CCSC(=O)N1CCCCCC1` [Molinate], for which the half-maximal cytotoxic concentration (CC50) at 24 h (AC50 (uM) modified / 1000) is more than 90 µM. Under “AC50 (uM) modified / 1000”, `CCCCCCC#CC(=O)OC` [Methyl 2-nonynoate] displayed a cytotoxic concentration (CC50) at 24 h of more than 90 µM. Under “AC50 (uM) modified / 1000”, `CC1(C)[C@H]2CC[C@]1(C)C(=O)C2=O` [(+)Camphorquinone] showed a cytotoxic concentration (CC50) at 24 h of more than 90 µM. `CCCCc1ccc2c(n1)[C@@H](c1ccc(OC)cc1C[C@H](C)C(=O)O)[C@H](C(=O)O)[C@H]2c1ccc2c(c1)OCO2` [MK-547] had a CC50 at 24 h (AC50 (uM) modified / 1000) of more than 90 µM.

On to `O=S(=O)(O)Oc1ccc(C(c2ccc(OS(=O)(=O)O)cc2)c2ccccn2)cc1` [Picosulfate sodium], for which the CC50 at 24 h (AC50 (uM) modified / 1000) was more than 50 µM.

Regarding `CCC1CO1` (stereo not shown) [1,2-Epoxybutane], under “AC50 (uM) modified / 1000”, the CC50 at 24 h was more than 90 µM.

Turning to `CCCCCCCCCCCCc1ccc(O)cc1` [4-Dodecylphenol], it took 15.6 µM to reach half-maximal cytotoxicity (AC50 (uM) modified / 1000) (CC50 at 24 h). `CCCCC/C=C\C/C=C\CCCCCCCC(=O)NC(C)c1ccccc1` (stereo not shown) [Melinamide] showed a CC50 at 24 h (AC50 (uM) modified / 1000) of more than 50 µM.

For `NCCCC[C@H](N)C(=O)O` [Lysine], under “AC50 (uM) modified / 1000”, the CC50 at 24 h was more than 50 µM.

Compound `O=C1NC(=O)c2ccccc21` [Potassium 1,3-dioxo-1,3-dihydroisoindol-2-ide] displayed a CC50 at 24 h (AC50 (uM) modified / 1000) of more than 90 µM. For `CN(C)CCCO[C@@H]1[C@H]2OC(C)(C)O[C@H]2O[C@@H]1[C@H](O)CO` [Amiprilose hydrochloride], the CC50 at 24 h (AC50 (uM) modified / 1000) was more than 50 µM. In the case of `CCCNC(C)(C)COC(=O)c1ccccc1` [Meprylcaine hydrochloride], the CC50 at 24 h (AC50 (uM) modified / 1000) is more than 50 µM. In turn, `CC(C)CCCCCCCOC(=O)c1ccc(C(=O)OCCCCCCCC(C)C)c(C(=O)OCCCCCCCC(C)C)c1` [Triisodecyl trimellitate] gave a CC50 at 24 h (AC50 (uM) modified / 1000) of more than 80 µM. In turn, `BrC(Br)C(Br)Br` [1,1,2,2-Tetrabromoethane] returned a CC50 at 24 h (AC50 (uM) modified / 1000) of more than 90 µM.

Take `O=c1cc(-c2ccccc2)oc2ccccc12` [Flavone]: the CC50 at 24 h (AC50 (uM) modified / 1000) is more than 90 µM.

On to `CNC1=Nc2ccc(Cl)cc2C(c2ccccc2)=[N+]([O-])C1` [Chlordiazepoxide], for which the CC50 at 24 h (AC50 (uM) modified / 1000, Tox21_110001=Tox21_111567, viability, 1 nM T3 present, 24 h) was more than 50 µM.

In turn, `CCCCOc1cc(C(=O)OCCN(CC)CC)ccc1N` [Benoxinate hydrochloride] had a cytotoxic concentration (CC50) at 24 h (AC50 (uM) modified / 1000) of more than 20 µM. As for `Nc1cc(S(=O)(=O)O)cc2cc(S(=O)(=O)O)cc(O)c12` [Monosodium 8-amino-1-naphthol-3,6-disulfonate], the half-maximal cytotoxic concentration (CC50) at 24 h (AC50 (uM) modified / 1000) was more than 90 µM.

`CC(=O)OC1(c2ccccc2)CCN(CCc2ccccc2)CC1` [1-(2-Phenylethyl)-4-phenyl-4-acetoxypiperidine] came in with a CC50 at 24 h (AC50 (uM) modified / 1000, Tox21_110001=Tox21_112833, viability, 1 nM T3 present, 24 h) of 84.5 µM. `Oc1c(Br)cc(Br)c2cccnc12` [Broxyquinoline]: the CC50 at 24 h (AC50 (uM) modified / 1000) was 24.9 µM.

Regarding `COc1ccnc(C[S+]([O-])c2nc3ccc(OC(F)F)cc3[nH]2)c1OC` (stereo not shown) [Pantoprazole sodium], for the setting “AC50 (uM) modified / 1000”, the 50% cytotoxic concentration (CC50) at 24 h is more than 90 µM. For `CN1C(C(=O)Nc2ccccn2)=C(O)c2sccc2S1(=O)=O` [Tenoxicam], the cytotoxic concentration (CC50) at 24 h (AC50 (uM) modified / 1000) was more than 20 µM. The compound `CN[C@H](CC(C)C)C(=O)N[C@H]1C(=O)N[C@@H](CC(N)=O)C(=O)N[C@H]2C(=O)N[C@H]3C(=O)N[C@H](C(=O)N[C@H](C(=O)O)c4cc(O)cc(O)c4-c4cc3ccc4O)[C@H](O)c3ccc(c(Cl)c3)Oc3cc2cc(c3O[C@@H]2O[C@H](CO)[C@@H](O)[C@H](O)[C@H]2O[C@H]2C[C@](C)(N)[C@H](O)[C@H](C)O2)Oc2ccc(cc2Cl)[C@H]1O` [Vancomycin hydrochloride] gave a half-maximal cytotoxic concentration (CC50) at 24 h (AC50 (uM) modified / 1000) of more than 50 µM. On the same count and under the same terms, with `CN1C(=O)CCS(=O)(=O)C1c1ccc(Cl)cc1` (stereo not shown) [Chlormezanone] the figure was more than 90 µM; with `Cn1cnc2ncnc(N)c21` [7-Methyladenine], more than 50 µM.

Where the note is “AC50 (uM) modified / 1000”, `Nc1ccc2cc3ccccc3cc2c1` [2-Aminoanthracene] yielded a CC50 at 24 h of more than 90 µM.

Take `NC(=O)CF` [2-Fluoroacetamide]: the 50% cytotoxic concentration (CC50) at 24 h (AC50 (uM) modified / 1000, Tox21_110001=Tox21_301297, viability, 1 nM T3 present, 24 h) is more than 90 µM. Regarding `CCOc1ccc(N)cc1` [4-Ethoxyaniline], the CC50 at 24 h (AC50 (uM) modified / 1000, Tox21_110001=Tox21_201946, viability, 1 nM T3 present, 24 h) was more than 90 µM. In turn, `O=C1OC[C@@H](Cc2cccc(O)c2)[C@@H]1Cc1cccc(O)c1` [Enterolactone] displayed a 50% cytotoxic concentration (CC50) at 24 h (AC50 (uM) modified / 1000) of more than 30 µM.

Turning to `CCC(C)O` (stereo not shown) [2-Butanol], the CC50 at 24 h (AC50 (uM) modified / 1000) is more than 90 µM.

Where the note is “AC50 (uM) modified / 1000”, `OCC(O)COc1ccc(Cl)cc1` (stereo not shown) [Chlorphenesin] displayed a CC50 at 24 h of more than 50 µM. Regarding `CCC(=O)O[C@H]1CC[C@H]2[C@@H]3CCC4=CC(=O)CC[C@]4(C)[C@H]3CC[C@]12C` [Testosterone propionate], the half-maximal cytotoxic concentration (CC50) at 24 h was more than 20 µM (AC50 (uM) modified / 1000, Tox21_110001=Tox21_110330, viability, 1 nM T3 present, 24 h) and 55 µM (AC50 (uM) modified / 1000, Tox21_110001=Tox21_302270, viability, 1 nM T3 present, 24 h). Regarding `CCCCCCC1(C)CCC(=O)O1` (stereo not shown) [Dihydrojasmone lactone], for the setting “AC50 (uM) modified / 1000”, the cytotoxic concentration (CC50) at 24 h was more than 90 µM. Where the note is “AC50 (uM) modified / 1000”, `OC(CN1CCC(Cc2ccc(F)cc2)CC1)c1ccc(Cl)cc1` (stereo not shown) [Eliprodil] gave a half-maximal cytotoxic concentration (CC50) at 24 h of more than 50 µM. Compound `Cc1cc2nc3c(=O)[nH]c(=O)nc-3n(C[C@H](O)[C@H](O)[C@H](O)CO)c2cc1C` [Riboflavin] came in with a CC50 at 24 h (AC50 (uM) modified / 1000) of more than 90 µM.
